# Results published in patent publication US11667649B2, “Heteroaromatic macrocyclic ether chemotherapeutic agents” (Nuvalent, Inc., priority 2020, dated 2023).
# Tested on: TPM3-NTRK1-wt IC50 / primary target (e.g. CD74-ROS1-wt) IC50, Ba/F3 cells
# Experiment: Cell assay TRKA selectivity (TRKA potency divided by primary target potency)
# Type: cell-based
# Conditions: for TPM3-NTRK1-wt/CD74-ROS1-G2032R: TRKA selectivity ratio: TPM3-NTRK1-wt IC50 / CD74-ROS1-G2032R IC50, Ba/F3 cells; for TPM3-NTRK1-wt/CD74-ROS1-wt: TRKA selectivity ratio: TPM3-NTRK1-wt IC50 / CD74-ROS1-wt IC50, Ba/F3 cells; for TPM3-NTRK1-wt/EML4-ALK-L1196M-G1202R: TRKA selectivity ratio: TPM3-NTRK1-wt IC50 / EML4-ALK-L1196M-G1202R IC50, Ba/F3 cells; for TPM3-NTRK1-wt/EML4-ALK-wt: TRKA selectivity ratio: TPM3-NTRK1-wt IC50 / EML4-ALK-wt IC50, Ba/F3 cells
# Method in brief: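 IL-3-independent Ba/F3 lines stably expressing TPM3-TRKA or the primary fusion (e.g. CD74-ROS1 wt) were exposed to 3-fold compound dilutions for 72 h. Viability was read by CellTiter-Glo luminescence, with IC50 from four-parameter logistic fit. Selectivity is TPM3-NTRK1 IC50 divided by primary-target IC50, binned A (>30-fold) to D (<1).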
Structure (SMILES),TPM3-NTRK1-wt/CD74-ROS1-G2032R,TPM3-NTRK1-wt/CD74-ROS1-wt,TPM3-NTRK1-wt/EML4-ALK-L1196M-G1202R,TPM3-NTRK1-wt/EML4-ALK-wt
"C[C@H]1Oc2cc(cnc2N)-c2c(C#N)nn(C)c2Cc2cccnc2-c2ccc(F)cc21 [Example 100, (20R)-23-amino-17-fluoro-5,20-dimethyl-21-oxa-4,5,12,24-tetraazapentacyclo[20.3.1.0^2,^6.0^8,^13.0^14,^19]hexacosa-1(25),2(6),3,8(13),9,11,14,16,18,22(26),23-undecaene-3-carbonitrile]","A (bin A for very high selectivity, ratio>30-fold)","A (bin A for very high selectivity, ratio>30-fold)","A (bin A for very high selectivity, ratio>30-fold)","A (bin A for very high selectivity, ratio>30-fold)"
"CCc1nn(CC)c2c1Cc1cn(C)nc1-c1ccc(F)cc1[C@@H](C)Oc1cc-2cnc1N [Example 158, (19R)-3,5-diethyl-16-fluoro-10,19-dimethyl-20-oxa-3,4,10,11,23-pentaazapentacyclo[19.3.1.0^2,^6.0^8,^12.0^13,^18]pentacosa-1(24),2(6),4,8,11,13,15,17,21(25),22-decaen-22-amine]","A (bin A for very high selectivity, ratio>30-fold)","A (bin A for very high selectivity, ratio>30-fold)","C (bin C for moderate selectivity, ratio≥1)","A (bin A for very high selectivity, ratio>30-fold)"
"CCn1ncc2c1-c1cnc(N)c(c1)O[C@H](C)c1cc(F)ccc1-c1nc(C)oc1C2 [Example 131, (19R)-3-ethyl-16-fluoro-10,19-dimethyl-9,20-dioxa-3,4,11,23-tetraazapentacyclo[19.3.1.0^2,^6.0^8,^12.0^13,^18]pentacosa-1(24),2(6),4,8(12),10,13,15,17,21(25),22-decaen-22-amine]","B (bin B for high selectivity, ratio>10-fold)","A (bin A for very high selectivity, ratio>30-fold)","C (bin C for moderate selectivity, ratio≥1)","B (bin B for high selectivity, ratio>10-fold)"
"C[C@H]1Oc2cc(cnc2N)-c2c(cnn2C2COC2)Cc2cn(C)nc2-c2ccc(F)cc21 [Example 139, (19R)-16-fluoro-10,19-dimethyl-3-(oxetan-3-yl)-20-oxa-3,4,10,11,23-pentaazapentacyclo[19.3.1.0^2,^6.0^8,^12.0^13,^18]pentacosa-1(24),2(6),4,8,11,13,15,17,21(25),22-decaen-22-amine]","A (bin A for very high selectivity, ratio>30-fold)","A (bin A for very high selectivity, ratio>30-fold)","C (bin C for moderate selectivity, ratio≥1)","A (bin A for very high selectivity, ratio>30-fold)"
"CC(C)n1nc2c(c1C#N)-c1cnc(N)c(c1)O[C@H](C)c1cc(F)ccc1-n1nccc1C2 [Example 118, (19R)-22-amino-16-fluoro-19-methyl-4-(propan-2-yl)-20-oxa-4,5,11,12,23-pentaazapentacyclo[19.3.1.0^2,^6.0^8,^12.0^13,^18]pentacosa-1(24),2,5,8,10,13,15,17,21(25),22-decaene-3-carbonitrile]","D (bin D for low selectivity, ratio<1)","A (bin A for very high selectivity, ratio>30-fold)","D (bin D for low selectivity, ratio<1)","A (bin A for very high selectivity, ratio>30-fold)"
"CCn1ncc2c1-c1cnc(N)c(c1)O[C@H](C)c1cc(F)ccc1-c1nn(C(C)(C)C)cc1C2 [Example 150, (19R)-10-tert-butyl-3-ethyl-16-fluoro-19-methyl-20-oxa-3,4,10,11,23-pentaazapentacyclo[19.3.1.0^2,^6.0^8,^12.0^13,^18]pentacosa-1(24),2(6),4,8,11,13,15,17,21(25),22-decaen-22-amine]","A (bin A for very high selectivity, ratio>30-fold)","A (bin A for very high selectivity, ratio>30-fold)","C (bin C for moderate selectivity, ratio≥1)","B (bin B for high selectivity, ratio>10-fold)"
"CCn1nc(C)c2c1-c1cnc(N)c(c1)O[C@H](C)c1cc(F)ccc1-c1nn(C)cc1C2 [Example 81, (19R)-3-ethyl-16-fluoro-5,10,19-trimethyl-20-oxa-3,4,10,11,23-pentaazapentacyclo[19.3.1.0^2,^6.0^8,^12.0^13,^18]pentacosa-1(24),2(6),4,8,11,13,15,17,21(25),22-decaen-22-amine]","A (bin A for very high selectivity, ratio>30-fold)","A (bin A for very high selectivity, ratio>30-fold)","B (bin B for high selectivity, ratio>10-fold)","A (bin A for very high selectivity, ratio>30-fold)"
"CCn1nc(C(F)(F)F)c2c1-c1cnc(N)c(c1)O[C@H](C)c1cc(F)ccc1-c1nn(C)cc1C2 [Example 96, (19R)-3-ethyl-16-fluoro-10,19-dimethyl-5-(trifluoromethyl)-20-oxa-3,4,10,11,23-pentaazapentacyclo[19.3.1.0^2,^6.0^8,^12.0^13,^18]pentacosa-1(24),2(6),4,8,11,13,15,17,21(25),22-decaen-22-amine]","A (bin A for very high selectivity, ratio>30-fold)","A (bin A for very high selectivity, ratio>30-fold)","C (bin C for moderate selectivity, ratio≥1)","A (bin A for very high selectivity, ratio>30-fold)"
"C[C@H]1Oc2cc(cnc2N)-c2c(C#N)cnn2Cc2ccnn2-c2ccc(F)cc21 [Example 58, (19R)-22-amino-16-fluoro-19-methyl-20-oxa-4,6,11,12,23-pentaazapentacyclo[19.3.1.0^2,^6.0^8,^12.0^13,^18]pentacosa-1(24),2,4,8,10,13,15,17,21(25),22-decaene-3-carbonitrile]","A (bin A for very high selectivity, ratio>30-fold)","A (bin A for very high selectivity, ratio>30-fold)","B (bin B for high selectivity, ratio>10-fold)","A (bin A for very high selectivity, ratio>30-fold)"
"CCc1noc2c1-c1cnc(N)c(c1)OCc1cc(F)ccc1-c1nn(C)cc1C2 [Example 30, 3-ethyl-16-fluoro-10-methyl-5,20-dioxa-4,10,11,23-tetraazapentacyclo[19.3.1.0^2,^6.0^8,^12.0^13,^18]pentacosa-1(24),2(6),3,8,11,13,15,17,21(25),22-decaen-22-amine]","A (bin A for very high selectivity, ratio>30-fold)","A (bin A for very high selectivity, ratio>30-fold)","C (bin C for moderate selectivity, ratio≥1)","A (bin A for very high selectivity, ratio>30-fold)"
"CCn1ncc2c1-c1cnc(N)c(c1)O[C@H](C)c1cc(F)ccc1-n1nc(C(F)F)cc1C2 [Example 102, (19R)-10-(difluoromethyl)-3-ethyl-16-fluoro-19-methyl-20-oxa-3,4,11,12,23-pentaazapentacyclo[19.3.1.0^2,^6.0^8,^12.0^13,^18]pentacosa-1(24),2(6),4,8,10,13,15,17,21(25),22-decaen-22-amine]","A (bin A for very high selectivity, ratio>30-fold)","A (bin A for very high selectivity, ratio>30-fold)","C (bin C for moderate selectivity, ratio≥1)","B (bin B for high selectivity, ratio>10-fold)"
"C[C@H]1Oc2cc(cnc2N)-c2c(CC(F)F)nn(C)c2Cc2cn(C)nc2-c2ccc(F)cc21 [Example 172, (19R)-3-(2,2-difluoroethyl)-16-fluoro-5,10,19-trimethyl-20-oxa-4,5,10,11,23-pentaazapentacyclo[19.3.1.0^2,^6.0^8,^12.0^13,^18]pentacosa-1(24),2(6),3,8,11,13,15,17,21(25),22-decaen-22-amine]","A (bin A for very high selectivity, ratio>30-fold)","A (bin A for very high selectivity, ratio>30-fold)","A (bin A for very high selectivity, ratio>30-fold)","A (bin A for very high selectivity, ratio>30-fold)"
"CCn1nnc2c1-c1cnc(N)c(c1)O[C@H](C)c1cc(F)ccc1-n1nc(C(F)(F)F)cc1C2 [Example 107, (19R)-3-ethyl-16-fluoro-19-methyl-10-(trifluoromethyl)-20-oxa-3,4,5,11,12,23-hexaazapentacyclo[19.3.1.0^2,^6.0^8,^12.0^13,^18]pentacosa-1(24),2(6),4,8,10,13,15,17,21(25),22-decaen-22-amine]","A (bin A for very high selectivity, ratio>30-fold)","A (bin A for very high selectivity, ratio>30-fold)","C (bin C for moderate selectivity, ratio≥1)","C (bin C for moderate selectivity, ratio≥1)"
"C[C@H]1Oc2cc(cnc2N)-c2c(CC3CC3)nn(C)c2Cc2cn(C)nc2-c2ccc(F)cc21 [Example 178, (19R)-3-(cyclopropylmethyl)-16-fluoro-5,10,19-trimethyl-20-oxa-4,5,10,11,23-pentaazapentacyclo[19.3.1.0^2,^6.0^8,^12.0^13,^18]pentacosa-1(24),2(6),3,8,11,13,15,17,21(25),22-decaen-22-amine]","A (bin A for very high selectivity, ratio>30-fold)","A (bin A for very high selectivity, ratio>30-fold)","A (bin A for very high selectivity, ratio>30-fold)","A (bin A for very high selectivity, ratio>30-fold)"
